Results as given in PubChem BioAssay (NCI).
Values joined by “and” are separate entries in the source; they are usually repeats but may differ in a detail not shown here. Equal values may be shown once.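 In this assay, cells in 96-well plates receive the compound at five concentrations for 48 hours. Endpoints are linearly interpolated between the surrounding concentrations. TGI marks complete inhibition of growth.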

Tests used:
Test in all cases: NCI-60 cell line screen, 48 h
LOX IMVI melanoma = tested on: LOX IMVI melanoma
A498 renal = tested on: A498 renal
SF-539 CNS = tested on: SF-539 CNS
CAKI-1 renal = tested on: CAKI-1 renal
ACHN renal = tested on: ACHN renal
COLO 205 colon = tested on: COLO 205 colon
M14 melanoma = tested on: M14 melanoma
SF-295 CNS = tested on: SF-295 CNS
A549 NSCLC = tested on: A549 NSCLC
NCI-H522 lung = tested on: NCI-H522 lung
HL-60(TB) leukemia = tested on: HL-60(TB) leukemia
HOP-92 NSCLC = tested on: HOP-92 NSCLC
CCRF-CEM leukemia = tested on: CCRF-CEM leukemia
UACC-62 melanoma = tested on: UACC-62 melanoma
SNB-19 CNS = tested on: SNB-19 CNS
HCC-2998 colon = tested on: HCC-2998 colon
RPMI-8226 leukemia = tested on: RPMI-8226 leukemia
NCI-H226 lung = tested on: NCI-H226 lung

O=C1CSC(c2ccc(Cl)cc2)N1c1ccc(-c2ccc(-n3c(-c4ccccc4)nc4ccccc4c3=O)cc2)cc1 (configuration not stated)
TGI (LOX IMVI melanoma): 45.2 µM
TGI (A498 renal): > 100 µM
TGI (SF-539 CNS): > 100 µM
TGI (CAKI-1 renal): > 100 µM
TGI (ACHN renal): > 100 µM
TGI (COLO 205 colon): > 100 µM
TGI (M14 melanoma): > 100 µM
TGI (SF-295 CNS): > 100 µM
TGI (A549 NSCLC): > 100 µM
TGI (NCI-H522 lung): > 100 µM
TGI (HL-60(TB) leukemia): > 100 µM
TGI (HOP-92 NSCLC): 97.9 µM
TGI (CCRF-CEM leukemia): > 100 µM
TGI (UACC-62 melanoma): > 100 µM
TGI (SNB-19 CNS): > 100 µM
TGI (HCC-2998 colon): > 100 µM
TGI (RPMI-8226 leukemia): > 100 µM

COc1ccc2oc(=O)c(CC=C(C)C)c(O)c2c1C
TGI (LOX IMVI melanoma): > 100 µM
TGI (A498 renal): > 100 µM
TGI (SF-539 CNS): > 100 µM
TGI (CAKI-1 renal): > 100 µM
TGI (ACHN renal): > 100 µM
TGI (COLO 205 colon): > 100 µM
TGI (M14 melanoma): > 100 µM
TGI (SF-295 CNS): > 100 µM
TGI (A549 NSCLC): > 100 µM
TGI (NCI-H522 lung): > 100 µM
TGI (NCI-H226 lung): > 100 µM
TGI (HL-60(TB) leukemia): > 100 µM
TGI (CCRF-CEM leukemia): > 100 µM
TGI (UACC-62 melanoma): > 100 µM
TGI (SNB-19 CNS): > 100 µM
TGI (HCC-2998 colon): > 100 µM
TGI (RPMI-8226 leukemia): > 100 µM

Cc1cc(C)n(-c2nc3ccccc3c(=O)n2-c2ccccc2)n1
TGI (LOX IMVI melanoma): > 100 µM
TGI (A498 renal): > 100 µM
TGI (SF-539 CNS): > 100 µM
TGI (CAKI-1 renal): > 100 µM
TGI (ACHN renal): > 100 µM
TGI (COLO 205 colon): > 100 µM
TGI (M14 melanoma): > 100 µM
TGI (SF-295 CNS): > 100 µM
TGI (A549 NSCLC): > 100 µM
TGI (NCI-H522 lung): > 100 µM
TGI (NCI-H226 lung): > 100 µM
TGI (HL-60(TB) leukemia): > 100 µM
TGI (CCRF-CEM leukemia): > 100 µM
TGI (SNB-19 CNS): > 100 µM
TGI (HCC-2998 colon): > 100 µM

COc1ccc(CC2c3cc(OC)c(OC)c(OC)c3CC[N+]2(C)C)cc1Oc1ccc(CC2c3cc4c(c(OC)c3CCN2C)OCO4)cc1 (configuration not stated)
TGI (LOX IMVI melanoma): > 100 µM
TGI (A498 renal): > 100 µM
TGI (SF-539 CNS): > 100 µM
TGI (CAKI-1 renal): > 100 µM
TGI (ACHN renal): > 100 µM
TGI (COLO 205 colon): > 100 µM
TGI (M14 melanoma): > 100 µM
TGI (SF-295 CNS): > 100 µM
TGI (A549 NSCLC): > 100 µM
TGI (NCI-H522 lung): > 100 µM
TGI (NCI-H226 lung): > 100 µM
TGI (HL-60(TB) leukemia): 89.7 µM
TGI (HOP-92 NSCLC): > 100 µM
TGI (UACC-62 melanoma): > 100 µM
TGI (SNB-19 CNS): > 100 µM
TGI (HCC-2998 colon): > 100 µM

CC(C)(C)OC(=O)NC(Cc1ccc(OCc2ccccc2)cn1)C(=O)NCc1ccccc1 (configuration not stated)
TGI (LOX IMVI melanoma): 39.4 µM
TGI (A498 renal): > 100 µM
TGI (CAKI-1 renal): > 100 µM
TGI (ACHN renal): > 100 µM
TGI (COLO 205 colon): 30.8 µM
TGI (M14 melanoma): 47.8 µM
TGI (SF-295 CNS): 51.6 µM
TGI (A549 NSCLC): > 100 µM
TGI (NCI-H522 lung): 47.1 µM
TGI (HL-60(TB) leukemia): 33.7 µM
TGI (HOP-92 NSCLC): 60.4 µM
TGI (CCRF-CEM leukemia): 43.5 µM
TGI (UACC-62 melanoma): 32.5 µM
TGI (SNB-19 CNS): > 100 µM
TGI (HCC-2998 colon): > 100 µM
TGI (RPMI-8226 leukemia): 44.9 µM

CCCNC(C#N)c1ccc(OCCCCCCCCCCOc2ccc(C(C#N)NCCC)cc2)cc1 (configuration not stated)
TGI (LOX IMVI melanoma): 34.6 µM
TGI (A498 renal): 42.7 µM
TGI (SF-539 CNS): > 100 µM
TGI (ACHN renal): > 100 µM
TGI (COLO 205 colon): > 100 µM
TGI (M14 melanoma): > 100 µM
TGI (SF-295 CNS): > 100 µM
TGI (A549 NSCLC): > 100 µM
TGI (NCI-H522 lung): > 100 µM
TGI (NCI-H226 lung): 93.9 µM
TGI (HL-60(TB) leukemia): 43 µM
TGI (HOP-92 NSCLC): 66.1 µM
TGI (CCRF-CEM leukemia): 43.7 µM
TGI (UACC-62 melanoma): > 100 µM
TGI (SNB-19 CNS): > 100 µM
TGI (HCC-2998 colon): > 100 µM

CC1=C(C#N)C2C(=C(N)Oc3ccccc32)C(N)=N1 (configuration not stated)
TGI (LOX IMVI melanoma): 81.7 µM
TGI (A498 renal): 74.2 µM
TGI (SF-539 CNS): 61.3 µM
TGI (CAKI-1 renal): 53.9 µM
TGI (ACHN renal): 81.8 µM
TGI (COLO 205 colon): 67 µM
TGI (M14 melanoma): 64.6 µM
TGI (SF-295 CNS): > 100 µM
TGI (A549 NSCLC): > 100 µM
TGI (NCI-H522 lung): 36.2 µM
TGI (NCI-H226 lung): 66.2 µM
TGI (HL-60(TB) leukemia): > 100 µM
TGI (CCRF-CEM leukemia): > 100 µM
TGI (UACC-62 melanoma): 48.4 µM
TGI (SNB-19 CNS): 56.3 µM
TGI (HCC-2998 colon): 69.8 µM
TGI (RPMI-8226 leukemia): 77.3 µM

O=c1cc(-c2ccccc2)oc2ccc(-c3ccc4oc(-c5ccccc5)cc(=O)c4c3)cc12
TGI (LOX IMVI melanoma): 33.2 µM
TGI (A498 renal): 27.9 µM
TGI (SF-539 CNS): 30.8 µM
TGI (CAKI-1 renal): 46 µM
TGI (ACHN renal): 59.2 µM
TGI (COLO 205 colon): 41.5 µM
TGI (M14 melanoma): 30.2 µM
TGI (SF-295 CNS): 43.4 µM
TGI (A549 NSCLC): 50.6 µM
TGI (HL-60(TB) leukemia): 27.8 µM
TGI (HOP-92 NSCLC): 30.8 µM
TGI (CCRF-CEM leukemia): 43.7 µM
TGI (UACC-62 melanoma): 31.8 µM
TGI (SNB-19 CNS): 50 µM
TGI (HCC-2998 colon): 30 µM
TGI (RPMI-8226 leukemia): 32.6 µM

CCOC(=O)[C@H]1Nc2ccc(Cl)cc2[C@H]2OCC[C@@H]12
TGI (LOX IMVI melanoma): > 100 µM
TGI (A498 renal): > 100 µM
TGI (SF-539 CNS): > 100 µM
TGI (CAKI-1 renal): > 100 µM
TGI (ACHN renal): > 100 µM
TGI (COLO 205 colon): > 100 µM
TGI (M14 melanoma): > 100 µM
TGI (SF-295 CNS): > 100 µM
TGI (A549 NSCLC): > 100 µM
TGI (NCI-H522 lung): > 100 µM
TGI (NCI-H226 lung): > 100 µM
TGI (HL-60(TB) leukemia): > 100 µM
TGI (CCRF-CEM leukemia): > 100 µM
TGI (UACC-62 melanoma): > 100 µM
TGI (SNB-19 CNS): > 100 µM
TGI (HCC-2998 colon): > 100 µM

COc1ccc(N2C(=O)c3cccnc3S2(=O)=O)cc1
TGI (A498 renal): > 100 µM
TGI (SF-539 CNS): > 100 µM
TGI (CAKI-1 renal): > 100 µM
TGI (ACHN renal): > 100 µM
TGI (COLO 205 colon): > 100 µM
TGI (M14 melanoma): > 100 µM
TGI (SF-295 CNS): > 100 µM
TGI (A549 NSCLC): > 100 µM
TGI (NCI-H522 lung): > 100 µM
TGI (NCI-H226 lung): > 100 µM
TGI (HL-60(TB) leukemia): > 100 µM
TGI (HOP-92 NSCLC): > 100 µM
TGI (CCRF-CEM leukemia): > 100 µM
TGI (UACC-62 melanoma): > 100 µM
TGI (SNB-19 CNS): > 100 µM
TGI (HCC-2998 colon): > 100 µM
TGI (RPMI-8226 leukemia): > 100 µM

CCCN(CCC)c1cc2c(cc1F)c(=O)c(C(=O)O)cn2-c1ccc(N2CCN(C)CC2)cn1
TGI (LOX IMVI melanoma): 9.65 µM
TGI (A498 renal): 49.2 µM
TGI (SF-539 CNS): 32.6 µM
TGI (CAKI-1 renal): 32.5 µM
TGI (COLO 205 colon): 27.1 µM
TGI (M14 melanoma): 32.1 µM
TGI (SF-295 CNS): 33.6 µM
TGI (A549 NSCLC): 34 µM
TGI (NCI-H522 lung): 24.9 µM
TGI (NCI-H226 lung): 31.1 µM
TGI (HL-60(TB) leukemia): 26.1 µM
TGI (HOP-92 NSCLC): 28.7 µM
TGI (CCRF-CEM leukemia): 36.7 µM
TGI (UACC-62 melanoma): 39.6 µM
TGI (SNB-19 CNS): 31.5 µM
TGI (RPMI-8226 leukemia): 40.4 µM

Cc1nc(-c2cc3c(ccc4ccccc43)oc2=O)cc2c1c(=O)oc1ccc3ccccc3c12
TGI (LOX IMVI melanoma): > 100 µM
TGI (A498 renal): > 100 µM
TGI (SF-539 CNS): > 100 µM
TGI (CAKI-1 renal): > 100 µM
TGI (ACHN renal): > 100 µM
TGI (COLO 205 colon): > 100 µM
TGI (M14 melanoma): > 100 µM
TGI (SF-295 CNS): > 100 µM
TGI (A549 NSCLC): > 100 µM
TGI (NCI-H522 lung): > 100 µM
TGI (HL-60(TB) leukemia): > 100 µM
TGI (HOP-92 NSCLC): > 100 µM
TGI (CCRF-CEM leukemia): > 100 µM
TGI (UACC-62 melanoma): > 100 µM
TGI (SNB-19 CNS): > 100 µM
TGI (HCC-2998 colon): > 100 µM

Cc1ccc(CC2(OCCN(C)C)CCC(C(C)(C)C)CC2)cc1 (configuration not stated)
TGI (LOX IMVI melanoma): 3 µM and 3.97 µM
TGI (A498 renal): 28.6 µM and 27.1 µM
TGI (SF-539 CNS): 4.55 µM and 8.81 µM
TGI (CAKI-1 renal): 17.7 µM and 15.3 µM
TGI (ACHN renal): 19.1 µM and 20.5 µM
TGI (COLO 205 colon): 3.98 µM and 3 µM
TGI (M14 melanoma): 3.36 µM and 3.35 µM
TGI (SF-295 CNS): 9.86 µM and 9.5 µM
TGI (A549 NSCLC): 14 µM and 20.4 µM
TGI (NCI-H522 lung): 9.28 µM and 10.8 µM
TGI (NCI-H226 lung): 15.6 µM and 15.4 µM
TGI (HL-60(TB) leukemia): 6.24 µM and 5.02 µM
TGI (CCRF-CEM leukemia): 7.46 µM and 7.98 µM
TGI (UACC-62 melanoma): 5.48 µM and 10 µM
TGI (SNB-19 CNS): 16.6 µM and 16.8 µM
TGI (HCC-2998 colon): 4.26 µM and 4.73 µM
TGI (RPMI-8226 leukemia): 4 µM and 4.96 µM
